Results: ChEMBL document CHEMBL5505970 (J Med Chem, 2024)
Activity calls are given as the source filed them. The calls are words filed in the database; no cut-off is given here.

Legend:
[1] = Clearance in rat hepatocytes at 1 uM measured per million cells by ESI/LC-MS/MS analysis; format: ADME, cell-based, Hepatocyte; details: read-out: CLH
[2] = Toxicity in NOD-SCID mouse xenografted with human Granta-519 cells assessed as late stage erythroblasts in bone marrow at 10 mg/kg, po qd for 3 days and measured at 2 days after treatment cessation by flow cytometry; format: organism-based; details: in vivo, 72 h, time 3 day
[3] = Clearance in cynomolgus monkey at 0.5 mg/kg, iv formulated as a solution in 10% PG:18% PEG400 in water or 5% NMP:95% (10% VitE TPGS in water) measured for 24 hrs by reverse phase liquid chromatography coupled to mass spectrometry; format: ADME, organism-based, Macaca fascicularis; details: in vivo
[4] = biological target: Serine/threonine-protein kinase ATR (Homo sapiens, UniProt Q13535); experiment: Inhibition of ATR in human Jurkat cell lysates at 0.003 to 0.3 uM in presence of biotinylated ADP by KiNativ profiling based mass spectrometry; format: subcellular; details: dose 0.003-0.3 µM
Chain of Serine/threonine-protein kinase ATR (Q13535 whole entry, looked up): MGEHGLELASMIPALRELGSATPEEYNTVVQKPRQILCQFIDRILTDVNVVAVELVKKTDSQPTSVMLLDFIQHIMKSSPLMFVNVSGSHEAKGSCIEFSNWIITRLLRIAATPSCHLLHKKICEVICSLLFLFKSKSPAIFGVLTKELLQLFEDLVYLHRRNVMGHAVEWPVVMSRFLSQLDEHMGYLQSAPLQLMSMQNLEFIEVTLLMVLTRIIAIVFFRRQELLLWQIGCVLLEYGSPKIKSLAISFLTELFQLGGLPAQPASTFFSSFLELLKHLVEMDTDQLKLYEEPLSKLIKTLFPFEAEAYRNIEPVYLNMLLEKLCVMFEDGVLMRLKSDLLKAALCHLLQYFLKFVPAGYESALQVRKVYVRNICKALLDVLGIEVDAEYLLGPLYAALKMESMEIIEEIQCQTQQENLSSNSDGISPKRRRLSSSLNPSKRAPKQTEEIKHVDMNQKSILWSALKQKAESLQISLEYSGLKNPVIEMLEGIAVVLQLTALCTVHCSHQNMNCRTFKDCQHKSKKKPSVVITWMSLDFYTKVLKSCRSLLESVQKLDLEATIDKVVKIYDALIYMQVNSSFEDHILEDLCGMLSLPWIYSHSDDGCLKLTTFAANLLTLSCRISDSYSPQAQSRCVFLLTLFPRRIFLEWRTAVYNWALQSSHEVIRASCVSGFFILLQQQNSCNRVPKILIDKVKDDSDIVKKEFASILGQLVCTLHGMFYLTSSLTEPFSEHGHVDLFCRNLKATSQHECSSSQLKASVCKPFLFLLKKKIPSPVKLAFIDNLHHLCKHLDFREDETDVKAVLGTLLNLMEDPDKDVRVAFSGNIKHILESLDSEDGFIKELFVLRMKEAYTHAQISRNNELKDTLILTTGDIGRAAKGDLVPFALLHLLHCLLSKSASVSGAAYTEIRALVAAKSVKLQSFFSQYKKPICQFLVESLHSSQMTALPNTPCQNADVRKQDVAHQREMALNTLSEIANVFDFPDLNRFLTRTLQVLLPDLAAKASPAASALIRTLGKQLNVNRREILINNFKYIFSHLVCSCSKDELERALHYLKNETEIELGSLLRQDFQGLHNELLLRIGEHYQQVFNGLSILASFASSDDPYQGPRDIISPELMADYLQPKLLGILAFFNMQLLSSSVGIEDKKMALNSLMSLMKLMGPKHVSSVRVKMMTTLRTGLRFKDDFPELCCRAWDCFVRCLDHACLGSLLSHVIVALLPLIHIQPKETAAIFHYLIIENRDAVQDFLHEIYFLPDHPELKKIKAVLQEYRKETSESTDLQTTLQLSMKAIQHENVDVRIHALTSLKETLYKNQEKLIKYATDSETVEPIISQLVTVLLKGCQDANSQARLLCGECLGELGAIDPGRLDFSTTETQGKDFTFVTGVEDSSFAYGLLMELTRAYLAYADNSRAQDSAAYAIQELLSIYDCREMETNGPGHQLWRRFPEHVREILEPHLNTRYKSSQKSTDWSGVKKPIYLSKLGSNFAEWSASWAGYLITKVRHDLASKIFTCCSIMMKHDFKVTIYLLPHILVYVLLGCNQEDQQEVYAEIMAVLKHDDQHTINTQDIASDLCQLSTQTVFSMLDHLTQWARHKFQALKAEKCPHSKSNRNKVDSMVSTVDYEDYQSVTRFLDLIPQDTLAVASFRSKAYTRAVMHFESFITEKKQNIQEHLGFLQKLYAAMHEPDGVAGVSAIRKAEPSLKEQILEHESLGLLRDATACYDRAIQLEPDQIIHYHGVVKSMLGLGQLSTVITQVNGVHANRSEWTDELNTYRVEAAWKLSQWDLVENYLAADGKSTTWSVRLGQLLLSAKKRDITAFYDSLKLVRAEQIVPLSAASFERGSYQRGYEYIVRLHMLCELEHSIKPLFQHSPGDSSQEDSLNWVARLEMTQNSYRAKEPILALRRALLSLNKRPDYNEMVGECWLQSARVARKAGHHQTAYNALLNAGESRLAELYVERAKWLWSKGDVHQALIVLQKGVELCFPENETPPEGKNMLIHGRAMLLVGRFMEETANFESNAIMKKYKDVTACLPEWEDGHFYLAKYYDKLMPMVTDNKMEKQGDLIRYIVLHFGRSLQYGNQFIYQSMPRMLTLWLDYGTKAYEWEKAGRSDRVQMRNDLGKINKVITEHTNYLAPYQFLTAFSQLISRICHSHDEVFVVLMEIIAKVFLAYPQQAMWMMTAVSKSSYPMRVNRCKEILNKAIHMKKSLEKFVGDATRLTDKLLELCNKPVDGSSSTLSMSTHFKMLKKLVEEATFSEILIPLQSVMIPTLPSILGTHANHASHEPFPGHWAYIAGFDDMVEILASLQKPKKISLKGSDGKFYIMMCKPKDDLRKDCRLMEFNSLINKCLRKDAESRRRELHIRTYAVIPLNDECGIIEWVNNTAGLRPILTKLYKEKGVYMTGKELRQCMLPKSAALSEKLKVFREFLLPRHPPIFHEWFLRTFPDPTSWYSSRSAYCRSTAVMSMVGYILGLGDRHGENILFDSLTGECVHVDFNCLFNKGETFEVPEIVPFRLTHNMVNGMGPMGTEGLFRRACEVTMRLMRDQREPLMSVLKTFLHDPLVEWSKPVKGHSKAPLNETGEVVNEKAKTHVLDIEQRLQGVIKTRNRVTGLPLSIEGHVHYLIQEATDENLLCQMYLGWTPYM

[5] = Toxicity in BALB/c mouse assessed as decrease in proportion of reticulocytes in bone marrow at 10 mg/kg, po qd for 3 days; format: organism-based; details: in vivo, 72 h, time 3 day
[6] = Toxicity in NOD-SCID mouse xenografted with human Granta-519 cells assessed as late stage erythroblasts at 30 mg/kg, po qd for 3 days and measured at 2 days after treatment discontinuation by flow cytometry; format: organism-based; details: in vivo, 72 h, time 3 day

hepatocyte CLint at 1 µM [1]: 17 µL/min/1e6 cells
clearance [3]: 14 mL/min/kg
inhibition [4]: Active
Compound: C[C@@H]1COCCN1c1cc([C@]2(O)C[C@H]3CC[C@@H](C2)O3)c2cnn(-c3cc[nH]n3)c2n1 [CAMONSERTIB]
Activity [2]: Non-Toxic
Activity [5]: Toxic
Activity [6]: Non-Toxic
